From ChEMBL document CHEMBL3046396, “Synthesis and insecticidal evaluation of N-tert-butyl-N'-thio[1-(6-chloro-3-pyridylmethyl)-2-nitroiminoimidazolidine]-N,N'-diacylhydrazines” (2010)
The source made the active and inactive calls. The calls are words filed in the database; no cut-off is given here.

Legend:
Aphis fabae [1] = assay: Insecticidal activity against apterous adult stage of Aphis fabae ( black bean aphids) in soybean tender shoots assessed as death rate at 200 mg/l treated for 5 secs measured after 48 hr by modified FAO dip test; type: functional
Mythimna separata [2] = assay: Larvicidal activity against fourth-instar larval stage of Mythimna separata (Oriental armyworm) in compound-pretreated corn leaves assessed as mortality at 5 mg/l after 4 days; type: functional
Mythimna separata [3] = assay: Larvicidal activity against fourth-instar larval stage of Mythimna separata (Oriental armyworm) in compound-pretreated corn leaves assessed as mortality at 10 mg/l after 4 days; type: functional
Aphis fabae [4] = assay: Insecticidal activity against apterous adult stage of Aphis fabae (black bean aphids) in soybean tender shoots assessed as induction of premature, abnormal and lethal larva moult at 10 mg/l treated for 5 secs measured after 3 days by modified FAO dip test; type: functional, organism-based
Mythimna separata [5] = assay: Larvicidal activity against fourth-instar larval stage of Mythimna separata (Oriental armyworm) in compound-pretreated corn leaves assessed as mortality at 25 mg/l after 4 days; type: functional
Mythimna separata [6] = assay: Larvicidal activity against fourth-instar larval stage of Mythimna separata (Oriental armyworm) in compound-pretreated corn leaves assessed as mortality at 50 mg/l after 4 days; type: functional
Mythimna separata [7] = assay: Larvicidal activity against fourth-instar larval stage of Mythimna separata (Oriental armyworm) in compound-pretreated corn leaves assessed as mortality at 200 mg/l after 4 days; type: functional
Mythimna separata [8] = assay: Larvicidal activity against fourth-instar larval stage of Mythimna separata (Oriental armyworm) in compound-pretreated corn leaves assessed as mortality at 500 mg/l after 4 days; type: functional
Aphis fabae [9] = assay: Insecticidal activity against apterous adult stage of Aphis fabae (black bean aphids) in soybean tender shoots assessed as mortality at 200 mg/l treated for 5 secs measured after 2 hr by modified FAO dip test; type: functional, organism-based
Mythimna separata [10] = assay: Larvicidal activity against fourth-instar larval stage of Mythimna separata (Oriental armyworm) in compound-pretreated corn leaves assessed as mortality at 100 mg/l after 4 days; type: functional

Row | SMILES | Activity (Aphis fabae [1]) | mortality at 5 µg/mL (Mythimna separata [2]) | mortality at 10 µg/mL (Mythimna separata [3]) | Activity (Aphis fabae [4]) | mortality at 25 µg/mL (Mythimna separata [5]) | mortality at 50 µg/mL (Mythimna separata [6]) | mortality at 200 µg/mL (Mythimna separata [7]) | mortality at 500 µg/mL (Mythimna separata [8]) | Activity (Aphis fabae [9]) | mortality at 100 µg/mL (Mythimna separata [10])
1 | CCc1ccc(C(=O)NN(C(=O)c2cc(C)cc(C)c2)C(C)(C)C)cc1 [TEBUFENOZIDE] | 0% | 70% | 100% | Active | – | – | – | – | – | –
2 | CC(C)(C)N(NC(=O)c1ccccc1)C(=O)c1ccccc1 [RH-5849] | 0% | – | 0% | Active | 70% | 100% | – | – | – | –
3 | CC(C)(C)N(C(=O)c1ccccc1Cl)N(SN1CCN(Cc2ccc(Cl)nc2)/C1=N/[N+](=O)[O-])C(=O)c1ccccc1 | 84% | – | 0% | Active | 10% | 30% | 60% | 100% | Active | 50%
4 | O=[N+]([O-])/N=C1\NCCN1Cc1ccc(Cl)nc1 [IMIDACLOPRID] | 100% | – | 10% | – | 20% | 30% | 100% | – | Active | 60%
5 | COc1ccccc1C(=O)NN(C(=O)c1ccccc1OC)C(C)(C)C | 0% | – | – | Active | – | – | 70% | 10% | – | –
6 | CC(C)(C)N(NC(=O)c1ccccc1)C(=O)c1ccccc1Cl | 18% | 0% | 75% | Active | 90% | 100% | – | – | – | –
7 | Cc1cc(C)cc(C(=O)N(SN2CCN(Cc3ccc(Cl)nc3)/C2=N/[N+](=O)[O-])N(C(=O)c2cc(C)cc(C)c2)C(C)(C)C)c1 | 89% | – | 0% | Active | 10% | 25% | 70% | 100% | Active | 50%
8 | CC(C)(C)N(C(=O)c1ccc(Cl)cc1)N(SN1CCN(Cc2ccc(Cl)nc2)/C1=N/[N+](=O)[O-])C(=O)c1ccccc1 | 87% | – | – | Active | 0% | 40% | 80% | 100% | Active | 70%
9 | CC(C)(C)N(NC(=O)c1ccccc1)C(=O)c1ccc(Cl)cc1 | 26% | 0% | 25% | Active | 100% | 100% | – | – | – | –
10 | COc1ccccc1C(=O)N(SN1CCN(Cc2ccc(Cl)nc2)/C1=N/[N+](=O)[O-])N(C(=O)c1ccccc1OC)C(C)(C)C | 91% | – | – | Active | 0% | 10% | 70% | 80% | Active | 40%
11 | CC(C)(C)N(C(=O)c1cccc(Cl)c1)N(SN1CCN(Cc2ccc(Cl)nc2)/C1=N/[N+](=O)[O-])C(=O)c1ccccc1 | 86% | – | – | Active | 0% | 25% | 80% | 100% | Active | 70%
12 | COc1ccccc1C(=O)N(N(SN1CCN(Cc2ccc(Cl)nc2)/C1=N/[N+](=O)[O-])C(=O)c1ccccc1)C(C)(C)C | 92% | – | – | Active | – | 0% | 40% | 90% | Active | 20%
13 | COc1ccc(C(=O)N(SN2CCN(Cc3ccc(Cl)nc3)/C2=N/[N+](=O)[O-])N(C(=O)c2ccc(OC)cc2)C(C)(C)C)cc1 | 87% | – | – | Active | – | 0% | 70% | 100% | Active | 40%
14 | COc1ccc(C(=O)N(N(SN2CCN(Cc3ccc(Cl)nc3)/C2=N/[N+](=O)[O-])C(=O)c2ccccc2)C(C)(C)C)cc1 | 95% | – | – | Active | – | 0% | 70% | 80% | Active | 20%
15 | Cc1cc(C)cc(C(=O)NN(C(=O)c2cc(C)cc(C)c2)C(C)(C)C)c1 | 10% | – | 10% | Active | 70% | 95% | – | – | – | –
16 | COc1ccc(C(=O)N(NC(=O)c2ccccc2)C(C)(C)C)cc1 | 0% | – | – | Active | – | – | 0% | 60% | – | –
17 | CCc1ccc(C(=O)N(SN2CCN(Cc3ccc(Cl)nc3)/C2=N/[N+](=O)[O-])N(C(=O)c2cc(C)cc(C)c2)C(C)(C)C)cc1 | 53% | 70% | 90% | Active | 100% | 100% | – | – | Active | –
18 | Cc1cc(C)cc(C(=O)N(N(SN2CCN(Cc3ccc(Cl)nc3)/C2=N/[N+](=O)[O-])C(=O)c2ccccc2)C(C)(C)C)c1 | 80% | – | – | Active | 0% | 10% | 85% | 95% | Active | 55%
19 | CC(C)(C)N(C(=O)c1ccccc1)N(SN1CCN(Cc2ccc(Cl)nc2)/C1=N/[N+](=O)[O-])C(=O)c1ccccc1 | 100% | – | – | Active | – | – | 80% | 100% | Active | 0%
20 | CC(C)(C)N(NC(=O)c1ccccc1)C(=O)c1cccc(Cl)c1 | 12% | – | 0% | Active | 45% | 95% | – | – | – | 100%
21 | COc1ccccc1C(=O)N(NC(=O)c1ccccc1)C(C)(C)C | 32% | 0% | 10% | Active | 90% | 100% | – | – | – | –
22 | Cc1cc(C)cc(C(=O)N(NC(=O)c2ccccc2)C(C)(C)C)c1 | 12% | – | 10% | Active | 60% | 100% | – | – | – | –
23 | COc1ccc(C(=O)NN(C(=O)c2ccc(OC)cc2)C(C)(C)C)cc1 | 22% | – | – | Active | – | 0% | 40% | 95% | – | 10%
